Where two headings read alike, the source gives them in different places.
Target: T1, human APJ receptor (Homo sapiens, UniProt P35414)
T1 construct: expressed in transfected cells
T1 sequence (P35414 1-380): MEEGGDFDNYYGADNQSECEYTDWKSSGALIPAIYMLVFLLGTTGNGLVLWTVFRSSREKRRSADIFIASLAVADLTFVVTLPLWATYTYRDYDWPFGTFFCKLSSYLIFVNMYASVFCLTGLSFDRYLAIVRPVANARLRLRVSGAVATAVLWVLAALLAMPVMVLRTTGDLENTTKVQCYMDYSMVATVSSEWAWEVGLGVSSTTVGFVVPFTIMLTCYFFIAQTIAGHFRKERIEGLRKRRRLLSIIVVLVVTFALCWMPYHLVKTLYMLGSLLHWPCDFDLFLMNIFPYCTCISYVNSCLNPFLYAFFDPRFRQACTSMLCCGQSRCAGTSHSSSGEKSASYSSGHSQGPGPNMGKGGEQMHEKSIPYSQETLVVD
Assay: Intracellular cAMP accumulation assay (APJ hcAMP, HTRF)
Assay type: cell-based
Details: HEK293 cells stably expressing human APJ
Protocol: Intracellular cAMP Accumulation Assay
HEK293 cells stably expressing human APJ receptor were used to assess the activity of compounds. Cultured cells were detached and resuspended in the cAMP Homogeneous Time-Resolved Fluorescence (HTRF) assay buffer (Cisbio cat; #62AM4PEJ). […] Serial dilutions of a compound together with assay buffer containing […] and 2 μM forskolin were added to each well containing 5,000 cells and incubated for 30 minutes at room temperature. Subsequently, cAMP D2 reagent was added in the lysis buffer followed by the EuK antibody (Cisbio; cat #62AM4PEJ) and incubated for 60 min. The fluorescence emission ratio was measured using fluorometer. The intracellular cAMP concentrations (compound-stimulated inhibition of forskolin-mediated cAMP production) were calculated by extrapolation from a standard curve using known cAMP concentrations. The EC50 values were obtained by fitting the data to a sigmoidal concentration-response curve with variable slope.
The EC50 value of each compound is presented at the end of the example description.
The biological activity of the exemplified compounds of this invention determined by the assay described above is shown at the end of each example.

[1] = Table 1, forskolin-stimulated cAMP, read-out: APJ cAMP EC50
[2] = Table 3, forskolin-stimulated cAMP, read-out: APJ cAMP EC50
[3] = Table 4, forskolin-stimulated cAMP, read-out: Human cAMP EC50

Row | EC50 [1] [nM] | EC50 [2] [nM] | Compound | also measured
1 | 10 to 100 |  | CCCCc1nc(O)c(C(=O)N2CCC(c3cccc(Cl)c3)CC2)c(O)c1-c1c(OC)cccc1OC [Example 56, 6-butyl-3-[4-(3-chlorophenyl)piperidine-1-carbonyl]-5-(2,6-dimethoxyphenyl)pyridine-2,4-diol] | 
2 | 10 to 100 |  | CCCCc1nc(O)c(C(=O)N2CCN(c3ccccc3Cl)CC2)c(O)c1-c1c(OC)cccc1OC [Example 57, 6-butyl-3-[4-(2-chlorophenyl)piperazine-1-carbonyl]-5-(2,6-dimethoxyphenyl)pyridine-2,4-diol] | 
3 | 10 to 100 |  | CCCCc1nc(O)c(C(=O)N2CCN(c3cccc(Cl)c3)CC2)c(O)c1-c1c(OC)cccc1OC [Example 58, 6-butyl-3-[4-(3-chlorophenyl)piperazine-1-carbonyl]-5-(2,6-dimethoxyphenyl)pyridine-2,4-diol] | 
4 | 10 to 100 |  | CCCCc1nc(O)c(C(=O)N2CCN(c3ccccn3)CC2)c(O)c1-c1c(OC)cccc1OC [Example 59] | 
5 | 10 to 100 |  | CCCCc1nc(O)c(C(=O)N2CCN(c3nc(-c4ccccc4)ns3)CC2)c(O)c1-c1c(OC)cccc1OC [Example 60, 6-butyl-5-(2,6-dimethoxyphenyl)-3-[4-(3-phenyl-1,2,4-thiadiazol-5-yl)piperazine-1-carbonyl]pyridine-2,4-diol] | 
6 | 10 to 100 |  | CCCCc1nc(O)c(C(=O)N2CCC(N3CCCC3)CC2)c(O)c1-c1c(OC)cccc1OC [Example 61, 6-butyl-5-(2,6-dimethoxyphenyl)-3-[4-(pyrrolidin-1-yl)piperidine-1-carbonyl]pyridine-2,4-diol] | 
7 | 10 to 100 |  | CCCCc1nc(O)c(C(=O)N2CCC(c3ccccc3)CC2)c(O)c1-c1c(OC)cccc1OC [Example 62, 6-butyl-5-(2,6-dimethoxyphenyl)-3-(4-phenylpiperidine-1-carbonyl)pyridine-2,4-diol] | 
8 | 10 to 100 |  | CCCCc1nc(O)c(C(=O)N2CCN(C3CCCCC3)CC2)c(O)c1-c1c(OC)cccc1OC [Example 63, 6-butyl-3-(4-cyclohexylpiperazine-1-carbonyl)-5-(2,6-dimethoxyphenyl)pyridine-2,4-diol] | 
9 | 10 to 100 |  | CCCCc1nc(O)c(C(=O)N2CCC3(CC2)OCc2ccccc23)c(O)c1-c1c(OC)cccc1OC [Example 64, 6-butyl-5-(2,6-dimethoxyphenyl)-3-({3H-spiro[2-benzofuran-1,4′-piperidine]-1′-yl}carbonyl)pyridine-2,4-diol] | 
10 | 10 to 100 |  | CCCCc1nc(O)c(C(=O)N2CCC(c3noc4cc(F)ccc34)CC2)c(O)c1-c1c(OC)cccc1OC [Example 65, 6-butyl-5-(2,6-dimethoxyphenyl)-3-[4-(6-fluoro-1,2-benzoxazol-3-yl)piperidine-1-carbonyl]pyridine-2,4-diol] | 
11 | 10 to 100 |  | CCCCc1nc(O)c(C(=O)N2CCC3(CC2)CC(=O)Nc2ccccc23)c(O)c1-c1c(OC)cccc1OC [Example 66, 1-[6-butyl-5-(2,6-dimethoxyphenyl)-2,4-dihydroxypyridine-3-carbonyl]-2′,3′-dihydro-1′H-spiro[piperidine-4,4′-quinoline]-2′-one] | 
12 | 100 to 300 |  | CCCCc1nc(O)c(C(=O)N2CCC(c3cc(-c4ccccc4)[nH]n3)CC2)c(O)c1-c1c(OC)cccc1OC [Example 67, 6-butyl-5-(2,6-dimethoxyphenyl)-3-[4-(5-phenyl-1H-pyrazol-3-yl)piperidine-1-carbonyl]pyridine-2,4-diol] | 
13 | 10 to 100 |  | CCCCc1nc(O)c(C(=O)N2CCN(c3ccc(Cl)cc3)CC2)c(O)c1-c1c(OC)cccc1OC [Example 68, 6-butyl-3-[4-(4-chlorophenyl)piperazine-1-carbonyl]-5-(2,6-dimethoxyphenyl)pyridine-2,4-diol] | 
14 | 10 to 100 |  | CCCCc1nc(O)c(C(=O)N2CCC(c3nc(-c4cccnc4)no3)CC2)c(O)c1-c1c(OC)cccc1OC [Example 69, 6-butyl-5-(2,6-dimethoxyphenyl)-3-{4-[3-(pyridin-3-yl)-1,2,4-oxadiazol-5-yl]piperidine-1-carbonyl}pyridine-2,4-idiol] | 
15 |  |  | CCOCc1nc(O)c(C(=O)N2CC[C@H](c3ccccc3)C2)c(O)c1-c1c(OC)cc(F)cc1OC [Example 70] | EC50 (read-out: Human APJ cAMP EC50 Potency range): 10 to 100 nM
16 |  | 0.01 to 10 | CCCCc1nc(O)c(C(=O)N2CCC(c3ccc(Cl)cn3)C2)c(O)c1-c1c(OC)cccc1OC (stereo not drawn) [Example 75, 6-butyl-3-[3-(5-chloropyridin-2-yl)pyrrolidine-1-carbonyl]-5-(2,6-dimethoxyphenyl)pyridine-2,4-diol] | 
17 |  | 0.01 to 10 | CCOCc1nc(O)c(C(=O)N2CCC(c3ccc(Cl)cn3)C2)c(O)c1-c1c(OC)cccc1OC (stereo not drawn) [Example 76, 3-[3-(5-chloropyridin-2-yl)pyrrolidine-1-carbonyl]-5-(2,6-dimethoxyphenyl)-6-(ethoxymethyl)pyridine-2,4-diol] | 
18 |  | 0.01 to 10 | CCOCc1nc(O)c(C(=O)N2CCC(c3ccc(Cl)cn3)C2)c(O)c1-c1c(OC)cccc1OC (stereo not drawn) [Example 77, 3-[3-(5-chloropyridin-2-yl)pyrrolidine-1-carbonyl]-5-(2,6-dimethoxyphenyl)-6-(ethoxymethyl)pyridine-2,4-diol] | 
19 |  | 0.01 to 10 | CCCCc1nc(O)c(C(=O)N2CCC(c3ncccc3F)C2)c(O)c1-c1c(OC)cccc1OC (stereo not drawn) [Example 78, 6-butyl-5-(2,6-dimethoxyphenyl)-3-[3-(3-fluoropyridin-2-yl)pyrrolidine-1-carbonyl]pyridine-2,4-diol] | 
20 |  | 0.01 to 10 | CCCCc1nc(O)c(C(=O)N2CCC(c3ccc(F)cn3)C2)c(O)c1-c1c(OC)cccc1OC (stereo not drawn) [Example 79, 6-butyl-5-(2,6-dimethoxyphenyl)-3-[3-(5-fluoropyridin-2-yl)pyrrolidine-1-carbonyl]pyridine-2,4-diol] | 
21 |  | 0.01 to 10 | CCCCc1nc(O)c(C(=O)N2CCC(c3ccc(F)cn3)C2)c(O)c1-c1c(OC)cccc1OC (stereo not drawn) [Example 80, 6-butyl-5-(2,6-dimethoxyphenyl)-3-[3-(5-fluoropyridin-2-yl)pyrrolidine-1-carbonyl]pyridine-2,4-diol] | 
22 |  | 0.01 to 10 | CCCCc1nc(O)c(C(=O)N2CCC(c3ncccc3F)C2)c(O)c1-c1c(OC)cccc1OC (stereo not drawn) [Example 81, 6-butyl-5-(2,6-dimethoxyphenyl)-3-[3-(3-fluoropyridin-2-yl)pyrrolidine-1-carbonyl]pyridine-2,4-diol] | 
23 |  | 0.01 to 10 | CCCCc1nc(O)c(C(=O)N2CCC(c3ncc(F)cc3F)C2)c(O)c1-c1c(OC)cccc1OC (stereo not drawn) [Example 82, 6-butyl-3-[3-(3,5-difluoropyridin-2-yl)pyrrolidine-1-carbonyl]-5-(2,6-dimethoxyphenyl)pyridine-2,4-diol] | 
24 |  | 0.01 to 10 | CCCCc1nc(O)c(C(=O)N2CCC(c3ncc(F)cc3F)C2)c(O)c1-c1c(OC)cccc1OC (stereo not drawn) [Example 83, 6-butyl-3-[3-(3,5-difluoropyridin-2-yl)pyrrolidine-1-carbonyl]-5-(2,6-dimethoxyphenyl)pyridine-2,4-diol] | 
25 |  | 0.01 to 10 | CCOCc1nc(O)c(C(=O)N2CCC(c3ncc(F)cc3F)C2)c(O)c1-c1c(OC)cccc1OC (stereo not drawn) [Example 84, 3-[3-(3,5-difluoropyridin-2-yl)pyrrolidine-1-carbonyl]-5-(2,6-dimethoxyphenyl)-6-(ethoxymethyl)pyridine-2,4-diol] | 
26 |  | 0.01 to 10 | CCOCc1nc(O)c(C(=O)N2CCC(c3ncc(F)cc3F)C2)c(O)c1-c1c(OC)cccc1OC (stereo not drawn) [Example 85, 3-[3-(3,5-difluoropyridin-2-yl)pyrrolidine-1-carbonyl]-5-(2,6-dimethoxyphenyl)-6-(ethoxymethyl)pyridine-2,4-diol] | 
27 |  | 0.01 to 10 | COc1cccc(OC)c1-c1c(-c2ccc(F)cc2)nc(O)c(C(=O)N2CCC(c3ccccc3F)C2)c1O (stereo not drawn) [Example 86, (5-(2,6-dimethoxyphenyl)-6-(4-fluorophenyl)-2,4-dihydroxypyridin-3-yl)(3-(2-fluorophenyl)pyrrolidin-1-yl)methanone] | 
28 |  | 0.01 to 10 | COc1cccc(OC)c1-c1c(-c2ccc(F)cc2)nc(O)c(C(=O)N2CCC(c3ncc(F)cc3F)C2)c1O (stereo not drawn) [Example 87, (3-(3,5-difluoropyridin-2-yl)pyrrolidin-1-yl)(5-(2,6-dimethoxyphenyl)-6-(4-fluorophenyl)-2,4-dihydroxypyridin-3-yl)methanone] | 
29 |  |  | COCCc1nc(O)c(C(=O)N2CCN(Cc3cccc(F)c3)CC2)c(O)c1-c1c(OC)cccc1OC [Example 88, 5-(2,6-dimethoxyphenyl)-3-{4-[(3-fluorophenyl)methyl]piperazine-1-carbonyl}-6-(2-methoxyethyl)pyridine-2,4-diol] | EC50 [3]: 100 to 300 nM
30 |  |  | CCOCc1nc(O)c(C(=O)N2CCN(Cc3ccccc3F)CC2)c(O)c1-c1c(OC)cccc1OC [Example 89, 5-(2,6-dimethoxyphenyl)-6-(ethoxymethyl)-3-{4-[(2-fluorophenyl)methyl]piperazine-1-carbonyl}pyridine-2,4-diol] | EC50 [3]: 0.01 to 10 nM

— patent US10392347B2, “2,4-dihydroxy-nicotinamides as APJ agonists” (BRISTOL-MYERS SQUIBB COMPANY, priority 2015, dated 2019)
